The values below are quoted from earlier work in patent US20100124560A1, “MULTI PORTION INTRA-ORAL DOSAGE FORM AND USE THEREOF” (McNEIL AB, priority 2008, published 2010).

Where two headings read alike, the source gives them in different places.

For series [1] the following is noted: pKa value lying in interval 8-9.6.

For `NC(=O)C[C@H](N)C(=O)O` [Aspargine], the “pKa value (in interval 8-9.6)” value in series [1] is 8.73.
In the case of `N[C@@H](CS(=O)(=O)O)C(=O)O` [Cysteic acid], the “Solubility in water, g/kg” value (in water) was “Very soluble”.
Turning to `NC(=O)CC[C@H](N)C(=O)O` [Glutamine], where the note is “in water”, the “Solubility in water” value is given as 42 g/kg.
Consider `N[C@@H](Cc1c[nH]cn1)C(=O)O` [Histidine], for which the “Solubility in water” value (in water) is 43.5 g/kg.
In the case of `CC[C@H](C)[C@H](N)C(=O)O` [Isoleucine], the “Solubility in water” value (in water) is 34.2 g/kg.
`CC(C)C[C@H](N)C(=O)O` [Leucine]: the “Solubility in water” value (in water) was 22.0 g/kg.
As to `NCCCC[C@H](N)C(=O)O` [Lysine], the “Solubility in water, g/kg” value is “Very soluble^a)b)”.
As for `CSCC[C@H](N)C(=O)O` [Methionine], the “Solubility in water” value (in water) is on record as 56 g/kg.
For the compound `N[C@@H](Cc1ccccc1)C(=O)O` [Phenylalanine], the “Solubility in water” value (in water) is on record as 27.9 g/kg.
With `N[C@@H](CO)C(=O)O` [Serine], the “pKa value (in interval 8-9.6)” value in series [1] is on record as 9.05.
For the compound `CC(C)[C@H](N)C(=O)O` [Valine], the “Solubility in water” value (in water) is recorded as 88.5 g/kg.
